Common to all, as to assay type: binding
Assay [1] has as its target T1, human MDM2 protein (amino acids 2-188) (Homo sapiens, UniProt Q00987).
T1 construct: human MDM2 protein (amino acids 2-188); made in house
Briefly: p53-MDM2 TR-FRET assay (p53-MDM2 Assay 1). As to conditions: 1.25 nM MDM2-biotinylated, 10 nM Cy5-p53 peptide; read-out: IC50 (μM) of p53-Hdm2 inhibition (TR-FRET) Assay 1. The gist of the method: (§1)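 Peptide displacement read as 665/620 nm TR-FRET ratio (excitation 340 nm) after 15 min room temperature with 10 nM Cy5-p53 aa18-26, following 15 min preincubation of Eu-streptavidin (0.625 nM) with biotinylated MDM4 aa 2-185 (2.5 nM) or MDM2 aa 2-188 (1.25 nM); IC50 curve-fitted. MDM2 Assay 2: MDM2 and Eu-streptavidin each 0.1 nM.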
(In general: TR-FRET usually uses a lanthanide donor and a delayed reading to cut background.)

The target in assay [2] is T1, human MDM2 protein (amino acids 2-188). Briefly: p53-MDM2 TR-FRET assay, modified (p53-MDM2 Assay 2). As to conditions: 0.1 nM MDM2, 0.1 nM Europium labeled streptavidin; read-out: IC50 (nM) of p53-Hdm2 inhibition (TR-FRET) Assay 2. The procedure: Time Resolved Fluorescence Energy Transfer (TR-FRET) Assay
The inhibition of p53-MDM2 and p53-MDM4 interactions is measured by time resolved fluorescence energy transfer (TR-FRET). Fluorescence energy transfer (or Foerster resonance energy transfer) describes an energy transfer between donor and acceptor fluorescent molecules. For this assay, human MDM2 protein (amino acids 2-188) and human MDM4 protein (amino acids 2-185), tagged with a C-terminal biotin moiety, are used in combination with a Europium labeled streptavidin (Perkin Elmer, Inc., Waltham, Mass., USA) serving as the donor fluorophore. The p53 derived, Cy5 labeled peptide Cy5-TFSDLWKLL (p53 aa18-26) is the energy acceptor. Upon excitation of the donor molecule at 340 nm, binding interaction between MDM2 or MDM4 and the p53 peptide induces energy transfer and enhanced response at the acceptor emission wavelength at 665 nm. Disruption of the formation of the p53-MDM2 or p53-MDM4 complex due to an inhibitor molecule binding to the p53 binding site of MDM2 or MDM4 results in increased donor emission at 620 nm. The ratiometric FRET assay readout is calculated from the raw data of the two distinct fluorescence signals measured in time resolved mode (fluorescence 665 nm/fluorescence 620 nm×1000).
After addition of 1.25 nM MDM2-biotinylated or 2.5 nM MDM4-biotinylated (internal preparations), and 0.625 nM Europium labeled streptavidin (Perkin Elmer), the solution is pre-incubated for 15 minutes at room temperature, then 10 nM Cy5-p53 peptide (internal preparation) is added before an incubation at room temperature for 15 minutes prior to reading the plate. For measurement of samples, a Victor II microplate reader (Perkin Elmer) is used with the following settings: Excitation 340 nm, Emission Donor 620 nm and Emission Acceptor 665 nm. IC50 values are calculated by curve fitting using XLfit. If not specified, reagents are purchased from Sigma-Aldrich Chemie GmBH, Buchs, Switzerland.
This assay was used to evaluate compounds displaying inhibition of p53-MDM2 interaction and p53-MDM4 interaction at IC50s of 0.005 to 50 μM (p53-MDM2 Assay 1 and p53-MDM4 Assay 1, respectively). For selected compounds displaying IC50s between […] on MDM2, a slightly modified assay is used with the following adaptations: 0.1 nM MDM2, 0.1 nM Europium labeled streptavidin and Tecan genios Pro is used as a microplate reader for the fluorescence measurements (p53-MDM2 Assay 2).

The target of assay [3] is T2, human MDM4 protein (amino acids 2-185) (Homo sapiens, UniProt O15151).
T2 construct: human MDM4 protein (amino acids 2-185); made in house
T2 sequence (O15151 2-185): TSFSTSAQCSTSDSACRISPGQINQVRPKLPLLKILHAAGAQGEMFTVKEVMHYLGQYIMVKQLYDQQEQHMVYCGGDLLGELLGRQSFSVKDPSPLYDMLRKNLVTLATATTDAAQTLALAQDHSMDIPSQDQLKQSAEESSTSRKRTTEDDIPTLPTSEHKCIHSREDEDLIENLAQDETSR
In words: p53-MDM4 TR-FRET assay (p53-MDM4 Assay 1). As to conditions: 2.5 nM MDM4-biotinylated, 10 nM Cy5-p53 peptide; read-out: IC50 (μM) of p53-Hdm4 inhibition (TR-FRET) Assay 1. The gist of the method: as §1

T1 sequence (Q00987 2-188): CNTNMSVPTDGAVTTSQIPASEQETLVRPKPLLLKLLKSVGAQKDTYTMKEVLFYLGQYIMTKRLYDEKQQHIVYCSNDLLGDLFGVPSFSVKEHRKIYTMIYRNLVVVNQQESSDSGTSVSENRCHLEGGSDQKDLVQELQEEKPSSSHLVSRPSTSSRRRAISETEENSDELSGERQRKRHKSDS

What is called IC50 is the concentration that inhibits the measured activity by half. Regarding `COc1cc2c(cc1OC(C)C)[C@H](c1ccc(Cl)cc1)N(c1ccc(C(C)(O)C3CCN(C(=O)F)CC3)cc1)C(=O)C2` (mixture of isomers) [Example 90, 4-(1-{4-[(S)-1-(4-Chloro-phenyl)-7-isopropoxy-6-methoxy-3-oxo-3,4-dihydro-1H-isoquinolin-2-yl]-phenyl}-1-hydroxy-ethyl)-piperidine-1-carbonyl fluoride], the 50% inhibitory concentration (IC50) in assay [1] amounted to 0.0026 µM; in assay [2], 1.38 nM; in assay [3], 2.31 µM. As for `COc1cc2c(cc1OC(C)C)[C@H](c1ccc(Cl)cc1)N(c1ccc(C(C)(O)C3CCN(C(=O)COC(C)=O)CC3)cc1)C(=O)C2` (mixture of isomers) [Example 91, Acetic acid 2-[4-(1-{4-[(S)-1-(4-chloro-phenyl)-7-isopropoxy-6-methoxy-3-oxo-3,4-dihydro-1H-isoquinolin-2-yl]-phenyl}-1-hydroxy-ethyl)-piperidin-1-yl]-2-oxo-ethyl ester], the results for the IC50 in assay [1], in assay [2] and in assay [3] were 0.0023 µM, 1.85 nM and 2.16 µM, respectively.

Turning to `COc1cc2c(cc1OC(C)C)[C@H](c1ccc(Cl)cc1)N(c1ccc(C(C)(O)C3CCN(C(=O)CO)CC3)cc1)C(=O)C2` (mixture of isomers) [Example 92, (S)-1-(4-Chloro-phenyl)-2-(4-{1-hydroxy-1-[1-(2-hydroxy-acetyl)-piperidin-4-yl]-ethyl}-phenyl)-7-isopropoxy-6-methoxy-1,4-dihydro-2H-isoquinolin-3-one], the IC50 stood at 0.0036 µM in assay [1], 1.84 nM in assay [2] and 2.71 µM in assay [3]. Regarding `COc1cc2c(cc1OC(C)C)[C@H](c1ccc(Cl)cc1)N(c1ccc(C(C)(O)C3CC4CCC(C3)O4)cc1)C(=O)C2` (mixture of isomers) [Example 158, (S)-1-(4-Chloro-phenyl)-2-{4-[1-hydroxy-1-(8-oxabicyclo[3.2.1]oct-3-yl)-ethyl]-phenyl}-7-isopropoxy-6-methoxy-1,4-dihydro-2H-isoquinolin-3-one], the IC50 amounted to 0.0028 µM in assay [1], 1.2 nM in assay [2] and 2.84 µM in assay [3].

Consider `COc1cc2c(cc1OC(C)C)[C@H](c1ccc(Cl)cc1)N(c1ccc(C(C)(O)C3CC4CCCC(C3)S4(=O)=O)cc1)C(=O)C2` (mixture of isomers) [Example 175, (S)-1-(4-Chloro-phenyl)-2-{4-[1-(9,9-dioxo-9-thia-bicyclo[3.3.1]non-3-yl)-1-hydroxy-ethyl]-phenyl}-7-isopropoxy-6-methoxy-1,4-dihydro-2H-isoquinolin-3-one], for which the half-maximal inhibitory concentration (IC50) in assay [1] was 0.0028 µM; in assay [2], 1.92 nM; in assay [3] it was 3.58 µM. Regarding `COc1cc2c(cc1OC(C)C)[C@H](c1ccc(Cl)cc1)N(c1ccc([C@@](C)(O)C3CCN(C)CC3)cc1)C(=O)C2` (single isomer, unassigned) [Example 94], the IC50 in assay [1] was 0.0016 µM; in assay [2], 1.06 nM; in assay [3] it was 1.75 µM. `COc1cc2c(cc1OC(C)C)[C@H](c1ccc(Cl)cc1)N(c1ccc(C(C)(O)C3C4COCC3CN(C=O)C4)cc1)C(=O)C2` (stereo partly drawn) [Example 157, 9-(1-{4-[(S)-1-(4-Chloro-phenyl)-7-isopropoxy-6-methoxy-3-oxo-3,4-dihydro-1H-isoquinolin-2-yl]-phenyl}-1-hydroxy-ethyl)-3-oxa-7-aza-bicyclo[3.3.1]nonane-7-carbaldehyde]: in assay [2], the IC50 is 4.89 nM.

For `CC(C)Oc1cc2c(cc1OC(F)F)CC(=O)N(c1ccc(C(C)(O)C3CCOCC3)cc1)C2c1ccc(Cl)cc1` (stereo not shown) [Example 165, 1-(4-Chloro-phenyl)-6-difluoromethoxy-2-{4-[1-hydroxy-1-(tetrahydro-pyran-4-yl)-ethyl]-phenyl}-7-isopropoxy-1,4-dihydro-2H-isoquinolin-3-one], the IC50 in assay [2] turned out to be 12 nM. Same read-out and setting: as for `COc1cc2c(cc1OC(C)C)[C@H](c1ccc(Cl)cc1)N(c1ccc([C@](C)(O)C3CC4CCCC(C3)S4(=O)=O)cc1)C(=O)C2` (stereo partly drawn) [Example 176, (S)-1-(4-Chloro-phenyl)-2-{4-[(R)-1-(9,9-dioxo-9-thia-bicyclo[3.3.1]non-3-yl)-1-hydroxy-ethyl]-phenyl}-7-isopropoxy-6-methoxy-1,4-dihydro-2H-isoquinolin-3-one], the figure is 98 nM; as for `COc1cc2c(cc1OC(C)C)[C@H](c1ccc(Cl)cc1)N(c1ccc([C@@](C)(O)C3CC4CCCC(C3)S4(=O)=O)cc1)C(=O)C2` (stereo partly drawn) [Example 177, (S)-1-(4-Chloro-phenyl)-2-{4-[(S)-1-(9,9-dioxo-9-thia-bicyclo[3.3.1]non-3-yl)-1-hydroxy-ethyl]-phenyl}-7-isopropoxy-6-methoxy-1,4-dihydro-2H-isoquinolin-3-one], 1.15 nM; as for `COc1cc2c(cc1OC(C)C)[C@H](c1ccc(Cl)cc1)N(c1ccc(C(C)(O)C34CCC(CC3)OC4)cc1)C(=O)C2` (stereo partly drawn) [Example 178, (S)-1-(4-Chloro-phenyl)-2-{4-[1-hydroxy-1-(2-oxa-bicyclo[2.2.2]oct-4-yl)-ethyl]-phenyl}-7-isopropoxy-6-methoxy-1,4-dihydro-2H-isoquinolin-3-one], 1.59 nM. Still for that read-out and setting: as for `COc1cc2c(cc1OC(C)C)[C@H](c1ccc(Cl)cc1)N(c1ccc(C(C)(O)[C@H]3CCCN(C(=O)OC(C)(C)C)C3)cc1)C(=O)C2` (stereo partly drawn) [Example 179, (S)-3-(1-{4-[(S)-1-(4-Chloro-phenyl)-7-isopropoxy-6-methoxy-3-oxo-3,4-dihydro-1H-isoquinolin-2-yl]-phenyl}-1-hydroxy-ethyl)-piperidine-1-carboxylic acid tert-butyl ester], the figure is 1.28 nM; as for `COc1cc2c(cc1OC(C)C)[C@H](c1ccc(Cl)cc1)N(c1ccc(C(C)(O)[C@H]3CCCNC3)cc1)C(=O)C2` (stereo partly drawn) [Example 180, (S)-1-(4-Chloro-phenyl)-2-[4-((S)-1-hydroxy-1-piperidin-3-yl-ethyl)-phenyl]-7-isopropoxy-6-methoxy-1,4-dihydro-2H-isoquinolin-3-one], 2.25 nM. Same read-out and setting: next, `COc1cc2c(cc1OC(C)C)[C@H](c1ccc(Cl)cc1)N(c1ccc(C(C)(O)[C@H]3CCCN(C)C3)cc1)C(=O)C2` (stereo partly drawn) [Example 181, (S)-1-(4-Chloro-phenyl)-2-{4-[1-hydroxy-1-((S)-1-methyl-piperidin-3-yl)-ethyl]-phenyl}-7-isopropoxy-6-methoxy-1,4-dihydro-2H-isoquinolin-3-one]: 5.13 nM; `COc1cc2c(cc1OC(C)C)[C@H](c1ccc(Cl)cc1)N(c1ccc(C(C)(O)[C@H]3CCCN(C=O)C3)cc1)C(=O)C2` (stereo partly drawn) [Example 182, (S)-3-(1-{4-[(S)-1-(4-Chloro-phenyl)-7-isopropoxy-6-methoxy-3-oxo-3,4-dihydro-1H-isoquinolin-2-yl]-phenyl}-1-hydroxy-ethyl)-piperidine-1-carbaldehyde]: 0.329 nM; `COc1cc2c(cc1OC(C)C)[C@H](c1ccc(Cl)cc1)N(c1ccc(C(C)(O)[C@H]3CCCN(C4COC4)C3)cc1)C(=O)C2` (stereo partly drawn) [Example 183, (S)-1-(4-Chloro-phenyl)-2-{4-[1-hydroxy-1-((S)-1-oxetan-3-yl-piperidin-3-yl)-ethyl]-phenyl}-7-isopropoxy-6-methoxy-1,4-dihydro-2H-isoquinolin-3-one]: 8.78 nM.

(Values after patent US8859535B2, “Hydroxy substituted isoquinolinone derivatives” (Novartis AG, priority 2011, dated 2014).)
